Marks after values point to notes of the source that are not given here. Values belong to the compound of their own block, whether it stands above or below them. Where a SMILES comes first, the peptide text is derived from it. [ ]: non-standard residue; d: D form. Nle = CCCC[C@H](N)C(=O)O; βAla = NCCC(=O)O
Legend:
NSCLC cells = assay: Ionomycin-induced cytosolic Ca2+ in NSCLC cells (specificity); assay type: cell-based, human
Description: (§1) The ability of AM-37, ST-36, AM-13, and AM-14 to function as BBR antagonists was investigated. NSCLC cells transfected with BB1R, BB2R, and BRS-3 were harvested and loaded with Fura-2AM (Calbiochem, La Jolla, CA, USA) as described previously ([16]). The excitation ratio was determined at 340 and 380 nm with an emission wavelength of 510 nm.

BRS-3 [1] = target: T1, BRS-3 (Homo sapiens, UniProt P32247); assay: Inhibition of specific 125I-BA1 binding to BRS-3-transfected NCI-H1299 cells; settings: inhibition of specific 125I-BA1 binding; BRS-3-transfected NCI-H1299 cells
T1 construct: expressed in transfected cells; host or cells: NCI-H1299
T1 sequence (P32247 1-399): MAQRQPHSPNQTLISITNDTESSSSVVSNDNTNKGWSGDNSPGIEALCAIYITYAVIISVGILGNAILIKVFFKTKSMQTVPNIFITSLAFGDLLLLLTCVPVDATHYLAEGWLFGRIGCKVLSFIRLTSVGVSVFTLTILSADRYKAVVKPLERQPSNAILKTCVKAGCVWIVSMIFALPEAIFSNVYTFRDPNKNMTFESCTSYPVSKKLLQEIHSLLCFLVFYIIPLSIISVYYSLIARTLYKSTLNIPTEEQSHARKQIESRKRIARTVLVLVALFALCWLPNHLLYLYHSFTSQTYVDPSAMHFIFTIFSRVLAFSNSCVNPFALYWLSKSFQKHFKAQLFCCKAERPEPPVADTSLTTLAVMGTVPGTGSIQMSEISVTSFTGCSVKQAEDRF
Description: (§2) Non-small cell lung cancer cell line NCI-H1299 (ATCC, Manassas, VA, USA) was stably transfected with BB1R, BB2R, and BRS-3. The transfected cells were grown in RPMI-1640 containing 10% fetal bovine serum (FBS) with 0.3 mg/ml geneticin (Invitrogen, Grand Island, NY, USA). The transfected cells, which contained approximately 100,000 receptors/cell, were weekly split using trypsin/EDTA ([13]). In addition, lung cancer cell lines NCI-H727, H1299, and H1975 were purchased from ATCC and cultured in RPMI-1640, which contained 10% FBS. The cell types were derived from different human biopsy specimens. These studies were approved by the NIDDK biospecimens and biosafety committees.
(§3) The ability of AM-37, ST-36, AM-13, and AM-14 to inhibit specific ^125I-BA1 binding to NSCLC cells transfected stably with BB1R, BB2R, and BRS-3 was investigated. NSCLC cells were placed in 24 well plates. When confluent, the cells were washed three times with PBS. The cells were incubated with binding buffer (PBS containing 0.25% bovine serum albumin and 0.025% bacitracin, Sigma-Aldrich, St. Louis, MO, USA). Various concentrations of AM-37, ST-36, AM-13, or AM-14 were added to the cells for 10 min, followed by 100,000 cpm of ^125I-BA1 (0.16 nM) and incubated at 37°C for 30 min when equilibrium of binding was reached. The cells were rinsed three times with binding buffer for 2 min at 4°C. The cells that contained bound peptide dissolved in 0.2 N NaOH and counted in a Wallac 1470 γ-counter. The Ki was calculated as described ([15]).

ERK = ERK tyrosine phosphorylation by western blot, NCI-H1299 cells transfected with BB2R; assay type: cell-based, human
Description: (§4) The tyrosine phosphorylation of the EGFR and ERK was investigated by western blot. NSCLC cells transfected with BB1R, BB2R, and BRS-3 were placed in 10 cm dishes. When the cells were confluent, they were placed in SIT medium (RPMI-1640 containing 3 × 10^−8 M sodium selenite, 5 µg/ml bovine insulin, and 10 µg/ml apo-transferrin; Sigma-Aldrich, St. Louis, MO, USA) for 3 h. […] Cell extracts were made as described previously ([16]), and 600 µg of protein extract was immunoprecipitated with 4 µg anti-phosphotyrosine antibody (Becton Dickenson, USA). The immunoprecipitates were fractionated using a 4–20% polyacrylamide gel (Novex, San Diego, CA, USA). Proteins were transferred to a nitrocellulose membrane and incubated with 2 µg anti-EGFR or anti-ERK antibody (Cell Signaling Technologies, Danvers, MA, USA). After washing the blot, it was incubated with enhanced chemiluminescence detection reagent (Thermo Scientific) for 5 min and exposed to Biomax XAR film (Carestream, Rochester, NY, USA). The band intensity was determined using a Kodak image station 440 densitometer. Alternatively, 20 µg of protein extract was loaded onto polyacrylamide gels and after transfer to nitrocellulose, the blot was probed with anti-PY^1,068-EGFR, anti-EGFR, anti-PY^204ERK, or anti-ERK (Cell Signaling Technologies, Danvers, MA, USA).

BB1R [2] = target: T2, BB1R (Homo sapiens, UniProt P28336); assay: Inhibition of specific 125I-BA1 binding to BB1R-transfected NCI-H1299 cells
T2 construct: expressed in transfected cells; host or cells: NCI-H1299
Description: as §2, §3

BRS-3 [3] = target: T1, BRS-3; assay: Cytosolic Ca2+ (Fura-2AM) in NCI-H1299 cells transfected with BRS-3; assay type: cell-based
Description: as §2, §1

EGFR = EGFR tyrosine phosphorylation by western blot, NCI-H1299 cells transfected with BB2R; assay type: cell-based, human
Description: as §4

BB2R [4] = target: T3, BB2R (Homo sapiens, UniProt P30550); assay: Inhibition of specific 125I-BA1 binding to BB2R-transfected NCI-H1299 cells; settings: inhibition of specific 125I-BA1 binding; BB2R-transfected NCI-H1299 cells
T3 construct: expressed in transfected cells; host or cells: NCI-H1299
Excerpt: Non-small cell lung cancer cell line NCI-H1299 (ATCC, Manassas, VA, USA) was stably transfected with BB1R, BB2R, and BRS-3. […] The transfected cells, which contained approximately 100,000 receptors/cell, were weekly split using trypsin/EDTA ([13]). […] The cell types were derived from different human biopsy specimens. These studies were approved by the NIDDK biospecimens and biosafety committees.
NSCLC cells were placed in 24 well plates. When confluent, the cells were washed three times with PBS. […] The cells were rinsed three times with binding buffer for 2 min at 4°C. […] The Ki was calculated as described ([15]).

BB2R [5] = target: T3, BB2R; assay: Cytosolic Ca2+ (Fura-2AM) in NCI-H1299 cells transfected with BB2R; assay type: cell-based
Description: as §2, §1

BB1R [6] = target: T2, BB1R; assay: Cytosolic Ca2+ (Fura-2AM) in NCI-H1299 cells transfected with BB1R; assay type: cell-based
Description: as §2, §1

[7] = 10 µM pretreatment, then 100 nM BA1
[8] = 30 µM small molecule followed by 10 nM BA1
[9] = 100 nM BA1, relative to control

T3 sequence (P30550 whole entry): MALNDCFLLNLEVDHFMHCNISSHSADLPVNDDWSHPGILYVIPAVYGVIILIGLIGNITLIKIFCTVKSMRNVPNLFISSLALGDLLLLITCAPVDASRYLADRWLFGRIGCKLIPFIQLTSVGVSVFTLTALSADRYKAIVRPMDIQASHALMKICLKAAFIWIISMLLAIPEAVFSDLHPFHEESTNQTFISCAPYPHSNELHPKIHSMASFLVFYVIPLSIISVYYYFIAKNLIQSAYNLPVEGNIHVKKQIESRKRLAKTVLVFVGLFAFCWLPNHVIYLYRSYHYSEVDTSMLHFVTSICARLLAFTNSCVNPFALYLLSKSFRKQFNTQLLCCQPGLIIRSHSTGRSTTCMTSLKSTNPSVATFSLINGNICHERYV
T2 sequence (P28336 whole entry): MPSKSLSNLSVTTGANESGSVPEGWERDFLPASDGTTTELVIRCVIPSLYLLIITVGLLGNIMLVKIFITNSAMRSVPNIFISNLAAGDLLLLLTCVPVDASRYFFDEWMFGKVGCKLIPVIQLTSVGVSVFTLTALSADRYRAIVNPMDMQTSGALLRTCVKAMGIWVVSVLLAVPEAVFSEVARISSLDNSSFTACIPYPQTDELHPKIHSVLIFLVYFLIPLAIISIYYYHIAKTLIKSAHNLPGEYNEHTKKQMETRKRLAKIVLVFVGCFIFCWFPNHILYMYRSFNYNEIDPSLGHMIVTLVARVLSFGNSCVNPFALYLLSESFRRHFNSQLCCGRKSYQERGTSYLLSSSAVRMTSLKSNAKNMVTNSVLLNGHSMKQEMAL

Compound: C[C@H](CCC(=O)O)C[C@H](C)C[C@H](C)C(=O)/C=C(\O)[C@H](C)C[C@H](C)C/C=C/[C@@H](C)[C@@H](O)[C@@H](C)[C@@H](O)C[C@@H]1CC[C@@](C)([C@H]2CC[C@@](C)([C@@H](C)O)O2)O1 [ionomycin, reference compound]
- Effect on cytosolic Ca2+ (NSCLC cells; 5 µg/ml): strongly increased

- Ki (BRS-3 [1]): > 100 µM
- Ki (BB1R [2]): > 100 µM
- Increase in cytosolic Ca2+, BRS-3 (BRS-3 [3]; [8]): 2 ± 0.3^a nM
- Effect on the increase in cytosolic Ca2+ caused by BA1 (BRS-3 [3]; 30 µM, 10 nM BA1, BRS-3-transfected cells): partially blocked
- Effect on basal cytosolic Ca2+ (BRS-3 [3]; 30 µM, BRS-3-transfected cells): no effect
- Ki (BB2R [4]): 27 ± 4 µM
- Increase in cytosolic Ca2+, BB2R (BB2R [5]; [8]): 5 ± 0.6^a nM
- Increase in cytosolic Ca2+, BB1R (BB1R [6]; [8]): 7 ± 0.8^a nM
Compound: COc1ccc(NC(=O)N[C@H](Cc2c[nH]c3ccccc23)C(=O)NCC2(c3ccc(F)cc3)CCCCC2)cc1 [AM-13, (R)-N-[[1-(4-fluorophenyl)cyclohexyl]methyl]-3-(1H-indol-3-yl)-2-[3-(4-methoxyphenyl)ureido]propanamide]
- Effect of pretreatment on BA1-induced ERK tyrosine phosphorylation (ERK; [7]): not
- Effect of pretreatment on BA1-induced EGFR tyrosine phosphorylation (EGFR; [7]): BA1 increased strongly EGFR tyrosine phosphorylation
- Effect on the ability of ION to increase Ca2+ (NSCLC cells; 5 µg/ml ionomycin): no effect

Compound: CCCC[C@H](NC(=O)[C@H](Cc1ccccc1)NC(=O)[C@H](Cc1c[nH]cn1)NC(=O)CCNC(=O)[C@@H](NC(=O)[C@H](C)NC(=O)[C@H](Cc1c[nH]c2ccccc12)NC(=O)[C@H](CCC(N)=O)NC(=O)[C@H](N)Cc1ccc(O)cc1)C(C)C)C(N)=O [BA1, (D-Tyr^6, β-Ala^11, Phe^13, Nle^14)BB^6–14, reference compound] (H-[dY]QWAV[βAla]HF[Nle]-NH2; N-terminus and C-terminus assumed)
- ERK tyrosine phosphorylation (ERK; [9]): 277%
- Cytosolic Ca2+ reached after BA1 (BRS-3 [3]; 10 nM BA1, from 170 nM, Figure 2G): 194 nM
- Increase in cytosolic Ca2+, BRS-3 (BRS-3 [3]; BA1 10 nM alone): 24.4 ± 2.3 nM
- EGFR tyrosine phosphorylation (EGFR; [9]): 326%
- Cytosolic Ca2+ reached after BA1 (BB2R [5]; 10 nM BA1, from 160 nM, Figure 2D): 186 nM
- Increase in cytosolic Ca2+, BB2R (BB2R [5]; BA1 10 nM alone): 26.3 ± 1.7 nM
- Cytosolic Ca2+ reached after BA1 (BB1R [6]; 10 nM BA1, from 160 nM, within seconds, Figure 2A): 178 nM
- Increase in cytosolic Ca2+, BB1R (BB1R [6]; BA1 10 nM alone): 18.5 ± 1.1 nM

Reference: publication PMC5519534, “AM-37 and ST-36 Are Small Molecule Bombesin Receptor Antagonists” (Frontiers in Endocrinology, 2017)
